For one data set, the target named is T1, Human VEGFR-2 (KDR) (Homo sapiens, UniProt P35968).
T1 construct: purchased BPS Bioscience 40325
Kind of data set: In vitro VEGFR2 kinase inhibition assay. The data set is classed as biochemical. Conditions: for inhibition at 0.5 µM: read-out: VEGFR2 Kinase Inhibitory Activity % of Inhibition (500 nM); for IC50: isolated kinase domain, 45 min at 30 °C. On the procedure:
The experimental assay was conducted according to the manufacturer’s instructions. […] The incubation time was set for 45 min at 30 °C. Inhibitory potential towards the kinase domain was quantified by luminescence detection, after the addition of the Kinase-Glo™ MAX reagent (Promega, Madison, WI, USA, catalog #v6071). After further incubation for an additional 15 min, the luminescence was recorded using a microplate reader Synergy 2 Multi-Mode.

Another data set has as its system HaCaT cells. The data set is described as follows: Alamar Blue cytotoxicity on HaCaT cells. The data set is classed as cell-based. Conditions: Homo sapiens, read-out: IC50 HaCaT. Background: The colour change of resazurin is a common sign of viable cells or microbes.
A further data set has as its system A375 cells. Kind of data set: Alamar Blue cytotoxicity on A375 cells. The class given is cell-based, human. Conditions: for IC50: Homo sapiens, read-out: IC50 A375; for Selectivity Index SIb: SIb = IC50 HaCaT/IC50 A375.
The subject of data set [1] is Ea.Hy926 cells. Kind of data set: Alamar Blue cytotoxicity on Ea.Hy926 cells. Conditions: for Selectivity Index SIa: SIa = IC50 HaCaT/IC50 EA.hy296; for IC50: read-out: IC50 EA.hy926, 48 h exposure, Alamar Blue.
Method: (§1) To the growth media of all the cell lines, 1% penicillin/streptomycin and 10% FBS were added. The cell lines were cultured in standardized conditions (37 °C and 5% CO2) with the initiation of the experimental protocol once an 80–90% confluency was reached.
(§2) The spectrophotometric quantification (λemission = 590/35, λexcitation = 530/25) of resorufin by the metabolic-dependent conversion of the resazurin by the viable cells was achieved using the microplate reader Synergy 2 Multi-Mode. The cells were seeded in 100 µL of growth media in 96-well plates at the specified density (Ea.Hy296—5 × 10^3 cells/well, HaCaT—8 × 10^3 cells /well, and A375—7 × 10^3 cells /well) and were left overnight to attach. […] After 48 h of cultivation, the growth media was removed, and the AB assay was performed for the quantification of the viable cells post-exposure to the selected compounds. Three biological replicates were performed for each biological experiment with six technical replicates, using 0.2% DMSO as the negative control (NC) for data normalization (100% viability). The IC50 values were calculated based on the dose–cellular viability curve ratio obtained by fitting the experimental data with a 4-parameter logistic curve (SigmaPlot 11).
Data set [2] relates to chick chorioallantoic egg membrane (CAM). The data set is described as follows: Chorioallantoic egg membrane (CAM) assay. To be noted: 1 µM, 5 µM and 10 µM, 5-day protocol. The class given is in vivo. On the procedure: Eggs without deformities and weighing between 50 and 60 g were selected. The eggs were cleaned with 70% alcohol and incubated for 14 days in standard conditions (37.5 °C, humidity 65%). On the 4th day of incubation, approximately 10–12 mL of egg white (albumen) was extracted from the top of each egg using a medical syringe with a needle for the detachment of the egg membrane. On the 5th day, the eggs were checked for fertility using a light source, and a window large enough to reveal the vascular plexus was cut out with forceps. The window was then sealed with medical tape to maintain favorable conditions for embryonic development. Optimal ventilation conditions, temperature, and humidity were ensured throughout incubation to facilitate proper embryo growth. […] For this purpose, a transparent silicone ring was applied to the vascular plexus of the CAM using a tweezer. In this ring, 10 μL of each test sample was applied for 4 days. […] Pictures were taken daily (days 1–5 of exposure) to observe the effects of the samples on the angiogenic process, and the changes observed were noted. For microscopic analysis, a Zeiss SteREO Discovery.V8 stereomicroscope was used, coupled with a Zeiss Axiocam 105 digital camera, both connected to a computer. The images presented in this study were captured using the ZEN core 3.8 software. The scale bar from the images represents a measurement of 500 μm.

In data set [3] the test system is Ea.Hy926 cells. Kind of data set: Wound healing (scratch) assay. The class given is cell-based, human. Conditions: 12 h. On the procedure:
Confluent Ea.Hy926 monolayers were formed by seeding the cells for 24 h in a 12-well plate incubated in a starvation medium. After the confluency was reached, the medium was removed and a scratch was performed using the sterile tip of a 100 µL pipette. Detached cells were removed by washing the cellular monolayers twice with DPBS, and then the cells were photographed individually (phase-contrast microscopy, 10x objective) to assess the wound area at the moment of exposure (T0). […] For each experiment, an image was captured 12 h post-exposure (T12), and the rate of Ea.Hy926 cell migration was quantitatively evaluated by the wound healing percentage (%) calculated by the formula (AT0 − AT12)/ AT0 × 100 [35]. The scratch areas at T0 (AT0) and T12 (AT12), respectively, were determined with the IKOSA Prisma Application Wound Healing (Scratch) assay (v2.2.0) and are expressed as square pixels (Px^2).

Setting [4] is: A-375, 48 h exposure, Alamar Blue.

Here are results for eleven compounds from PMC11860020, “Rational Design and Synthesis of a Novel Series of Thiosemicarbazone-Containing Quinazoline Derivatives as Potential VEGFR2 Inhibitors” (Pharmaceutics, 2025).

The structures appear in SMILES notation. Where two headings read alike, the source gives them in different places.

A word on the inhibition: it is how much of the control response was suppressed. As a reminder, the IC50 is the midpoint of a concentration-inhibition curve.

T1 sequence (P35968 805-1356): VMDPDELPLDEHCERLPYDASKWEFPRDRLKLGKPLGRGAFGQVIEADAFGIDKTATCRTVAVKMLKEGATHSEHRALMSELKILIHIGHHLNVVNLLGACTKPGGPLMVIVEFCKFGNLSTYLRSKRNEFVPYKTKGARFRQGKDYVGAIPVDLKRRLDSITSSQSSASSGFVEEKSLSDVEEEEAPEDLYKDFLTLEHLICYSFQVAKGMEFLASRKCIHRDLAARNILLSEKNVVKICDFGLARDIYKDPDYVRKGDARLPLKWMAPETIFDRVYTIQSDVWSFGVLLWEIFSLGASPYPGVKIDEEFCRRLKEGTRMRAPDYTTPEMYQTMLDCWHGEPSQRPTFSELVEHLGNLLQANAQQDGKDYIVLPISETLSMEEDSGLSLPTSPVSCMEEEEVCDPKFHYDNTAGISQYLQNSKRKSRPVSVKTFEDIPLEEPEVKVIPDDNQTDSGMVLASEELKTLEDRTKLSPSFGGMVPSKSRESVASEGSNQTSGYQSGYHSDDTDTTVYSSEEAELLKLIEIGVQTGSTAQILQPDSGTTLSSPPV
Method for A375 cells: as §1, §2
Method for HaCaT cells: as §1, §2

As to `COc1cc2ncnc(Oc3ccc(C=NNC(=S)Nc4ccc(Cl)cc4)cc3)c2cc1OC` [TSC4, N-(4-chlorophenyl)-2-(4-((6,7-dimethoxyquinazolin-4-yl)oxy)benzylidene)hydrazine-1-carbothioamide], at Human VEGFR-2 (KDR), the inhibition at 0.5 µM worked out at 40.5%. For the same compound, the 50% inhibitory concentration (IC50) with HaCaT cells (48 h exposure, Alamar Blue) was determined as 15.9 µM; in the data set with A375 cells (setting [4]), 14.8 µM; with Ea.Hy926 cells [1], 14.5 µM. The “Selectivity Index SIb” value with A375 cells amounted to 1.08. Moreover, the “Selectivity Index SIa” value in the data set on Ea.Hy926 cells [1] is 1.10.
With `COc1cc2ncnc(Oc3ccc(/C=N/NC(=S)Nc4cccc(Cl)c4Cl)cc3)c2cc1OC` [TSC10, (E)-N-(2,3-dichlorophenyl)-2-(4-((6,7-dimethoxyquinazolin-4-yl)oxy)benzylidene)hydrazine-1-carbothioamide], the IC50 at Human VEGFR-2 (KDR) amounted to 0.119 µM; in the data set with HaCaT cells (48 h exposure, Alamar Blue) it was 52.4 µM; in the data set with A375 cells (setting [4]), 28.6 µM; with Ea.Hy926 cells [1] it was 12.8 µM. In addition, at Human VEGFR-2 (KDR), the inhibition at 0.5 µM was found to be 89.1%. Further, in data set [2], the “anti-angiogenic effect in CAM” value is given as “potent anti-angiogenic properties were observed”. Besides, in the data set on A375 cells, the “Selectivity Index SIb” value is recorded as 1.83. Besides, the “Selectivity Index SIa” value with Ea.Hy926 cells [1] is recorded as 4.09.
Turning to `COc1cccc(NC(=S)NN=Cc2ccc(Oc3ncnc4cc(OC)c(OC)cc34)cc2)c1` [TSC8, N-(3-methoxyphenyl)-2-(4-((6,7-dimethoxyquinazolin-4-yl)oxy)benzylidene)hydrazine-1-carbothioamide], the inhibition at 0.5 µM on Human VEGFR-2 (KDR) turned out to be 0%. For the same compound, the IC50 in the data set on HaCaT cells (48 h exposure, Alamar Blue) was more than 100 µM; in the data set with A375 cells (setting [4]) it was more than 100 µM; with Ea.Hy926 cells [1] it was more than 100 µM.
For the compound `COc1cc2ncnc(Oc3ccc(C=NNC(=S)Nc4ccccc4)cc3)c2cc1OC` [TSC5, N-phenyl-2-(4-((6,7-dimethoxyquinazolin-4-yl)oxy)benzylidene)hydrazine-1-carbothioamide], the IC50 at Human VEGFR-2 (KDR) is 0.378 µM; in the data set with HaCaT cells (48 h exposure, Alamar Blue), 16.4 µM; in the data set on A375 cells (setting [4]), 17.4 µM; with Ea.Hy926 cells [1], 7.47 µM. Further, at Human VEGFR-2 (KDR), the inhibition at 0.5 µM was found to be 71%. Moreover, the motility inhibition potential in the data set on Ea.Hy926 cells [3] (1.25-5 µM, versus 0.2% DMSO) is on record as 11.19–12.82%. In addition, in data set [2], the “anti-angiogenic effect in CAM” value was “pronounced decrease in CAM vascularization”. For the same compound, the “Selectivity Index SIb” value in the data set on A375 cells is given as 0.95. The “cytotoxic potential relative to sorafenib” value with Ea.Hy926 cells [1] (Ea.Hy296 cells, 48 h) is listed as 1.35 fold. For the same compound, the “Selectivity Index SIa” value in the data set with Ea.Hy926 cells [1] is reported as 2.20.
On to `COc1cc2ncnc(Oc3ccc(C=NNC(=S)Nc4ccc(Cl)c(C(F)(F)F)c4)cc3)c2cc1OC` [TSC6, N-(4-chloro-3-(trifluoromethyl)phenyl)-2-(4-((6,7-dimethoxyquinazolin-4-yl)oxy)benzylidene)hydrazine-1-carbothioamide], for which the inhibition at 0.5 µM at Human VEGFR-2 (KDR) worked out at 0%. In addition, the concentration for half-maximal inhibition (IC50) amounted to 23 µM in the data set on HaCaT cells (48 h exposure, Alamar Blue); 61 µM with A375 cells (setting [4]); 16.5 µM with Ea.Hy926 cells [1]. Further, in the data set on A375 cells, the “Selectivity Index SIb” value worked out at 0.38. In the data set on Ea.Hy926 cells [1], the “Selectivity Index SIa” value was 1.40.
Turning to `COc1cc2ncnc(Oc3ccc(C=NNC(=S)Nc4ccc(F)c(F)c4)cc3)c2cc1OC` [TSC7, N-(3,4-difluorophenyl)-2-(4-((6,7-dimethoxyquinazolin-4-yl)oxy)benzylidene)hydrazine-1-carbothioamide], on Human VEGFR-2 (KDR), the inhibition at 0.5 µM was determined as 21.1%. Further, the IC50 in the data set on HaCaT cells (48 h exposure, Alamar Blue) was 53.8 µM; with A375 cells (setting [4]), more than 100 µM; with Ea.Hy926 cells [1] it was 43.2 µM. Besides, the “Selectivity Index SIa” value with Ea.Hy926 cells [1] is 1.25.
As to `COc1cc2ncnc(Oc3ccc(/C=N/NC(=S)Nc4cccc(C(F)(F)F)c4)cc3)c2cc1OC` [TSC2, N-(3-(trifluoromethyl)-phenyl)-2-(4-((6,7-dimethoxyquinazolin-4-yl)oxy)benzylidene)-hyrazine-1-carbothioamide], the IC50 is 0.341 µM at Human VEGFR-2 (KDR); more than 100 µM with HaCaT cells (48 h exposure, Alamar Blue); more than 100 µM in the data set on A375 cells (setting [4]); more than 100 µM in the data set with Ea.Hy926 cells [1]. Also, the inhibition at 0.5 µM on Human VEGFR-2 (KDR) amounted to 59.5%.
With `CNC(=O)c1cc(Oc2ccc(NC(=O)Nc3ccc(Cl)c(C(F)(F)F)c3)cc2)ccn1` [Sorafenib, sorafenib, reference compound], the IC50 came out at 12.9 µM in the data set with HaCaT cells (48 h); 5.26 µM in the data set on A375 cells (A-375, 48 h); 10.2 µM with Ea.Hy926 cells [1]. In the data set on Ea.Hy926 cells [3] (5 µM), the “inhibition of the mobility of Ea.Hy296 cells” value is given as “almost total inhibition”. For the same compound, the “anti-angiogenic effect in CAM” value in data set [2] was “potent anti-angiogenic effect was observed across all three tested concentrations”.
Regarding `COc1cc2ncnc(Oc3ccc(C=NNC(=S)NC(C)C)cc3)c2cc1OC` [TSC9, N-isopropyl-2-(4-((6,7-dimethoxyquinazolin-4-yl)oxy)benzylidene)hydrazine-1-carbothioamide], the IC50 at Human VEGFR-2 (KDR) was 0.379 µM; with HaCaT cells (48 h exposure, Alamar Blue) it was 86.8 µM; in the data set with A375 cells (setting [4]), more than 100 µM; with Ea.Hy926 cells [1], 12.6 µM. Also, the inhibition at 0.5 µM on Human VEGFR-2 (KDR) is 70.5%. In addition, the “reduction in the wound closure area” value with Ea.Hy926 cells [3] (highest evaluated concentration (TSC9 12.5 µM, TSC10 7.5 µM)) came to 25.63%. In addition, the “anti-angiogenic effect in CAM” value in data set [2] is given as “anti-angiogenic properties were also demonstrated across all three tested concentrations”. In addition, the “Selectivity Index SIa” value in the data set on Ea.Hy926 cells [1] worked out at 6.90.
For the compound `C=CCNC(=S)NN=Cc1ccc(Oc2ncnc3cc(OC)c(OC)cc23)cc1` [TSC1, N-allyl-2-(4-((6,7-dimethoxyquinazolin-4-yl)oxy)benzylidene)hydrazine-1-carbothioamide], the half-maximal inhibitory concentration (IC50) on Human VEGFR-2 (KDR) was 0.389 µM; with HaCaT cells (48 h exposure, Alamar Blue), approximately 100 µM; in the data set on A375 cells (setting [4]), more than 100 µM. Besides, at Human VEGFR-2 (KDR), the inhibition at 0.5 µM worked out at 52.7%. In addition, the “Selectivity Index SIa” value in the data set on Ea.Hy926 cells [1] is recorded as 2.00.
For `COc1cc2ncnc(Oc3ccc(C=NNC(=S)Nc4ccc(F)cc4)cc3)c2cc1OC` [TSC3, N-(4-fluorophenyl)-2-(4-((6,7-dimethoxyquinazolin-4-yl)oxy)benzylidene)hydrazine-1-carbothioamide], the 50% inhibitory concentration (IC50) on Human VEGFR-2 (KDR) was 0.239 µM; in the data set on HaCaT cells (48 h exposure, Alamar Blue), 28.6 µM; with A375 cells (setting [4]) it was more than 100 µM; with Ea.Hy926 cells [1] it was 26.5 µM. In addition, the inhibition at 0.5 µM on Human VEGFR-2 (KDR) turned out to be 62.1%. Also, the “Selectivity Index SIa” value with Ea.Hy926 cells [1] stood at 1.08.
